Data taken from article PMC3176174 (OncoTargets and therapy, 2011).

Legend:
Experiment in all cases: cells
Assay type in all cases: cell-based, human
[1] = test system: SEM cell line
[2] = test system: KOPN8 cell line
[3] = test system: TIB-202 cell line
[4] = test system: MOLT-3 cell line
[5] = test system: B1 cell line

Molecule	IC50 ([1]; Table S1, SEM, 96 hours)	IC50 ([2]; Table S1, KOPN8, 96 hours)	IC50 ([3]; Table S1, TIB-202, 96 hours)	IC50 ([4]; Table S1, MOLT-3, 96 hours)	IC50 ([5]; Table S1, B1, 96 hours)	IC50 ([1]; Homo sapiens, 96 h)	IC50 ([2]; Homo sapiens, KOPN-8, 96 h)	IC50 ([3]; Homo sapiens, 96 h)	IC50 ([4]; Homo sapiens, MOLT-3, 96 h)	IC50 ([5]; Homo sapiens, 96 h)
NC(=O)NO [Hydroxyurea]	> 10 µM	> 5 µM	> 5 µM	> 10 µM	> 10 µM	–	–	–	–	–
CC(C)Cn1cnc2c(N)nc3ccccc3c21 [Imiquimod]	–	–	–	–	–	> 10 µM	2.9 µM	> 10 µM	> 10 µM	> 10 µM
O=NN(CCCl)C(=O)NCCCl [Carmustine]	–	–	–	–	–	> 10 µM	> 5 µM	> 5 µM	> 10 µM	> 10 µM
Clc1ccc(C(c2ccccc2Cl)C(Cl)Cl)cc1 (stereo not shown) [Mitotane]	–	–	–	–	–	> 10 µM	> 5 µM	> 5 µM	> 10 µM	> 10 µM
O=P(O)(O)C(O)(Cn1ccnc1)P(=O)(O)O [Zoledronic acid]	–	–	–	–	–	> 10 µM	> 10 µM	> 10 µM	> 10 µM	> 10 µM
CO[C@H]1C[C@@H]2CC[C@@H](C)[C@@](O)(O2)C(=O)C(=O)N2CCCC[C@H]2C(=O)O[C@H]([C@H](C)C[C@@H]2CC[C@@H](OCCO)[C@H](OC)C2)CC(=O)[C@H](C)/C=C(\C)[C@@H](O)[C@@H](OC)C(=O)[C@H](C)C[C@H](C)/C=C/C=C/C=C/1C [Everolimus]	–	–	–	–	–	< 0.01 µM	< 0.01 µM	< 0.01 µM	> 10 µM	0.834 µM
S=c1[nH]cnc2nc[nH]c12 [Mercaptopurine]	–	–	–	–	–	> 10 µM	> 5 µM	> 5 µM	> 10 µM	> 10 µM
COc1nc(N)nc2c1ncn2[C@@H]1O[C@H](CO)[C@@H](O)[C@@H]1O [Nelarabine]	–	–	–	–	–	> 10 µM	> 10 µM	> 10 µM	1.23 µM	> 10 µM
NCC(=O)CCC(=O)O [Aminolevulinic acid]	–	–	–	–	–	> 10 µM	> 10 µM	> 10 µM	> 10 µM	> 10 µM
Cc1cn(-c2cc(NC(=O)c3ccc(C)c(Nc4nccc(-c5cccnc5)n4)c3)cc(C(F)(F)F)c2)cn1 [Nilotinib]	–	–	–	–	–	> 10 µM	> 10 µM	< 0.01 µM	> 10 µM	< 0.01 µM
CNC(=O)c1cc(Oc2ccc(NC(=O)Nc3ccc(Cl)c(C(F)(F)F)c3)cc2)ccn1 [Sorafenib]	–	–	–	–	–	1.54 µM	3.86 µM	5.95 µM	9.63 µM	5.66 µM
CO[C@H]1C[C@@H]2CC[C@@H](C)[C@@](O)(O2)C(=O)C(=O)N2CCCC[C@H]2C(=O)O[C@H]([C@H](C)C[C@@H]2CC[C@@H](O)[C@H](OC)C2)CC(=O)[C@H](C)/C=C(\C)[C@@H](O)[C@@H](OC)C(=O)[C@H](C)C[C@H](C)/C=C/C=C/C=C/1C [Rapamycin]	–	–	–	–	–	< 0.01 µM	< 0.01 µM	7.05 µM	< 0.01 µM	0.00804 µM
Oc1ncnc2[nH]ncc12 [Allopurinol]	–	–	–	–	–	> 10 µM	> 5 µM	> 5 µM	> 10 µM	> 10 µM
CN(C)/N=N/c1[nH]cnc1C(N)=O [Dacarbazine]	–	–	–	–	–	> 10 µM	> 10 µM	> 10 µM	> 10 µM	> 10 µM
CN(C)c1nc(N(C)C)nc(N(C)C)n1 [Altretamine]	–	–	–	–	–	> 10 µM	> 10 µM	> 10 µM	> 10 µM	> 10 µM
CS(=O)(=O)OCCCCOS(C)(=O)=O [Busulfan]	–	–	–	–	–	> 10 µM	> 5 µM	> 5 µM	6.36 µM	> 10 µM
NCCCNCCSP(=O)(O)O [Amifostine]	–	–	–	–	–	> 10 µM	> 10 µM	> 10 µM	> 10 µM	> 10 µM
CCCCCOC(=O)Nc1nc(=O)n([C@@H]2O[C@H](C)[C@@H](O)[C@H]2O)cc1F [Capecitabine]	–	–	–	–	–	> 10 µM	> 10 µM	> 10 µM	> 10 µM	> 10 µM

Molecule	IC50 ([1]; Table S1, SEM, 96 hours)	IC50 ([2]; Table S1, KOPN8, 96 hours)	IC50 ([3]; Table S1, TIB-202, 96 hours)	IC50 ([4]; Table S1, MOLT-3, 96 hours)	IC50 ([5]; Table S1, B1, 96 hours)	IC50 ([1]; Homo sapiens, 96 h)	IC50 ([2]; Homo sapiens, KOPN-8, 96 h)	IC50 ([3]; Homo sapiens, 96 h)	IC50 ([4]; Homo sapiens, MOLT-3, 96 h)	IC50 ([5]; Homo sapiens, 96 h)
O=P1(NCCCl)OCCCN1CCCl (stereo not shown) [Ifosfamide]	–	–	–	–	–	> 10 µM	> 5 µM	> 5 µM	> 10 µM	> 10 µM
C#Cc1cccc(Nc2ncnc3cc(OCCOC)c(OCCOC)cc23)c1 [Erlotinib]	–	–	–	–	–	1 µM	5.82 µM	6.68 µM	5.7 µM	2.98 µM
O=C1[O][Pt]2([NH][C@@H]3CCCC[C@H]3[NH]2)[O]C1=O [Oxaliplatin]	5.67 µM	0.309 µM	6.2 µM	0.969 µM	3.68 µM	–	–	–	–	–
Bleomycin	< 0.01 µM	0.108 µM	1.07 µM	8.42 µM	2.92 µM	–	–	–	–	–
O=c1[nH]c(=O)n([C@H]2C[C@H](O)[C@@H](CO)O2)cc1F [Floxuridine]	–	–	–	–	–	> 10 µM	> 5 µM	> 5 µM	> 10 µM	8.48 µM
O=c1[nH]cc(F)c(=O)[nH]1 [Fluorouracil]	–	–	–	–	–	> 10 µM	> 5 µM	> 5 µM	7.11 µM	> 10 µM
O=C(CCBr)N1CCN(C(=O)CCBr)CC1 [Pipobroman]	–	–	–	–	–	4.32 µM	0.389 µM	4.34 µM	6.35 µM	2.63 µM
C=C1C[C@@H]2[C@H](CC[C@]3(C)C(=O)CC[C@@H]23)[C@@]2(C)C=CC(=O)C=C12 [Exemestane]	–	–	–	–	–	2.08 µM	8.89 µM	> 10 µM	> 10 µM	> 10 µM
Carboplatin	> 10 µM	5.14 µM	7.64 µM	6.97 µM	7.73 µM	–	–	–	–	–
CN(N=O)C(=O)N[C@@H](C=O)[C@@H](O)[C@H](O)[C@H](O)CO [Streptozocin]	–	–	–	–	–	> 10 µM	> 5 µM	> 5 µM	> 10 µM	> 10 µM
COc1cccc2c1C(=O)c1c(O)c3c(c(O)c1C2=O)C[C@@](O)(C(=O)CO)C[C@@H]3O[C@H]1C[C@H](N)[C@H](O)[C@H](C)O1 [Doxorubicin]	–	–	–	–	–	< 0.01 µM	< 0.01 µM	0.0585 µM	7.84 µM	0.12 µM
O=C(O)CCCc1ccc(N(CCCl)CCCl)cc1 [Chlorambucil]	–	–	–	–	–	7.29 µM	3.38 µM	4.47 µM	5.56 µM	6.41 µM
Cc1nc(Nc2ncc(C(=O)Nc3c(C)cccc3Cl)s2)cc(N2CCN(CCO)CC2)n1 [Dasatinib]	–	–	–	–	–	4.05 µM	0.00748 µM	< 1e-06 µM	> 10 µM	< 1e-06 µM
CCc1c2c(nc3ccc(OC(=O)N4CCC(N5CCCCC5)CC4)cc13)-c1cc3c(c(=O)n1C2)COC(=O)[C@]3(O)CC [Irinotecan]	–	–	–	–	–	3.4 µM	1.69 µM	2.53 µM	3.92 µM	2.29 µM
CC(C)C[C@H](NC(=O)[C@H](Cc1ccccc1)NC(=O)c1cnccn1)B(O)O [Bortezomib]	–	–	–	–	–	< 0.01 µM	< 0.01 µM	0.00571 µM	> 10 µM	0.00397 µM
O=P1(N(CCCl)CCCl)NCCCO1 (stereo not shown) [Cyclophosphamide]	–	–	–	–	–	> 10 µM	> 5 µM	> 5 µM	> 10 µM	> 10 µM
CC(C)(C#N)c1cc(Cn2cncn2)cc(C(C)(C)C#N)c1 [Anastrozole]	–	–	–	–	–	2.08 µM	> 10 µM	> 10 µM	> 10 µM	> 10 µM
